Data: ChEMBL document CHEMBL1201862, “PubChem BioAssay data set” (2004)
Blank lines part the entries; values can stand above or below the molecule they belong to. The source made the active and inactive calls.

Tests used:
[1] = Luminescence Cell-Based Dose Confirmation HTS to Identify Activators of 5'UTR Stem-Loop Driven Alpha-Synuclein mRNA Translation in H4 Neuroglioblastoma Cells. [Related pubchem assays: 1829 (Project Summary), 1814 (Primary HTS)]; type: functional
[2] = Luminescence Cell-Based Dose Response HTS to Identify Activators of Luciferase Translation or Activity in H4 […] Cells. [Related pubchem assays: 1829 (Project Summary), 1814 (Primary HTS)]; type: functional
[3] = molecular target: T1, RNA-binding protein pos-1 (Caenorhabditis elegans, UniProt G5EF15); test: inhibitors of POS-1/mex-3 RNA binding, dose response, biochemical, fluorescence polarization (AID 1964);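 further: purified POS-1 fused to maltose binding protein made in E. coli; potency of compounds blocking POS-1 binding to fluorescent RNA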
T1 sequence (G5EF15 whole entry): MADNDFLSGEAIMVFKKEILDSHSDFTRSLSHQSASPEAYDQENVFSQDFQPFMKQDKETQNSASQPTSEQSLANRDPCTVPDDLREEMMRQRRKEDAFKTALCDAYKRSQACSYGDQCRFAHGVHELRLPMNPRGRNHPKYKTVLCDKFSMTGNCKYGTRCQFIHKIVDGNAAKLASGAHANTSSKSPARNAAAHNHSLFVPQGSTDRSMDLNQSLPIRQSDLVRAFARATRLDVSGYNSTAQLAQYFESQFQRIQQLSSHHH

[4] = molecular target: T2, Zinc finger protein mex-5 (Caenorhabditis elegans, UniProt Q9XUB2); test: MEX-5/TCR-2 RNA interaction inhibitors, dose response, biochemical, C. elegans, fluorescence polarization (AID 1960)
T2 sequence (Q9XUB2 whole entry): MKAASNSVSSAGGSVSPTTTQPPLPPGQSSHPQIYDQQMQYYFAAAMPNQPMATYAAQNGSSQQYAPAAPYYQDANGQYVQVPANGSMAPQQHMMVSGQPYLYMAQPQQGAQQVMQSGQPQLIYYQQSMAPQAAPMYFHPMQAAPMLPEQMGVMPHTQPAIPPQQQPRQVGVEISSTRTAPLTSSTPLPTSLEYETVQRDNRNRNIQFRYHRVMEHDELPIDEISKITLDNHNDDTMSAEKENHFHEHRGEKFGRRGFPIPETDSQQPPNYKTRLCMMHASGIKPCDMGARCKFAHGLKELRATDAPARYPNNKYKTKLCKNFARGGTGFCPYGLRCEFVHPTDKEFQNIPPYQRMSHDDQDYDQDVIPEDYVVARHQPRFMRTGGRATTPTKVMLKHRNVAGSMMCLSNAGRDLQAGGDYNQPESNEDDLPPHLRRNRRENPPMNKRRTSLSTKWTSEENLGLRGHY

Protein skinhead-1 = molecular target: T3, Protein skinhead-1 (Caenorhabditis elegans, UniProt P34707); type: functional
T3 sequence (P34707 whole entry): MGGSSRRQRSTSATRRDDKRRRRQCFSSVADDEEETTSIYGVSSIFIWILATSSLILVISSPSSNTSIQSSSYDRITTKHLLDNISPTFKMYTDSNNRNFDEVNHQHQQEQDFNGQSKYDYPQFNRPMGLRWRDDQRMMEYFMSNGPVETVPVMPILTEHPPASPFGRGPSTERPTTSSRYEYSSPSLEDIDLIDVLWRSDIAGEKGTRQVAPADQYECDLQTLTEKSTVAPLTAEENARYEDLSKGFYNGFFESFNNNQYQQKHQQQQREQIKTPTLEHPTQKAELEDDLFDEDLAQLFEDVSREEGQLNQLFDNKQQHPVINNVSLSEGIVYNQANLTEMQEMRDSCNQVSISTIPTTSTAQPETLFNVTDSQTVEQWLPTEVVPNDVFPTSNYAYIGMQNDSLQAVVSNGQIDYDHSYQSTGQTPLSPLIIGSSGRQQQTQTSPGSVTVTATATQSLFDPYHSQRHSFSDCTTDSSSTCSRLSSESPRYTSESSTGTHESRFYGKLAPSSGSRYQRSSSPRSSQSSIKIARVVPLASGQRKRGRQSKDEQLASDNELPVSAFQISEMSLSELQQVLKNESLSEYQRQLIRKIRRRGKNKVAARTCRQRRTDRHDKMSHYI

INS1 = test: beta cell apoptosis inhibitors, cytokine rescue, dose response, luminescence, retest (AID 449756); type: functional, cell-based; conditions: Rattus norvegicus;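 further: cell death triggered by IL-1 beta plus TNF-alpha plus IFN-gamma mixture; protective hits raise ATP signal compared with cytokine alone wells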
Cytochrome P450 2C19 = Cytochrome P450 2C19 (Homo sapiens, UniProt P33261); test: Cytochrome panel assay with activity outcomes. Panel member name: p450-cyp2c19 Compounds with AC50 equal or less than 10 uM are considered active; type: functional; conditions: read-out: AC50
Cytochrome P450 1A2 = molecular target: T4, Cytochrome P450 1A2 (Homo sapiens, UniProt P05177);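 further: PubChem cytochrome P450 panel assay, CYP1A2 panel member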
T4 sequence (P05177 whole entry): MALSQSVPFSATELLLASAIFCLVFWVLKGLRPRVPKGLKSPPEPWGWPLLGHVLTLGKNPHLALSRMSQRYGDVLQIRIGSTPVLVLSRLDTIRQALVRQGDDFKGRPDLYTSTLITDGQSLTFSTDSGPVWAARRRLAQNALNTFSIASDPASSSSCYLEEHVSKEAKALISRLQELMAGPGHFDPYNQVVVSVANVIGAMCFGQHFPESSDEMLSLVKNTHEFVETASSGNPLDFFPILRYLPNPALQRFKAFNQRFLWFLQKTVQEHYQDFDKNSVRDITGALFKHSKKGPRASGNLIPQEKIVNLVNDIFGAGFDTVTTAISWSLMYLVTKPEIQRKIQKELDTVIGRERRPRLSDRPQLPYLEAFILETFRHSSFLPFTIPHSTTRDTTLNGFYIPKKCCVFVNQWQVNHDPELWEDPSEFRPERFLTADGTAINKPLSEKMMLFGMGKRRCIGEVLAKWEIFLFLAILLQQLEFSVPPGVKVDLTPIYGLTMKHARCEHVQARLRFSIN

Cytochrome P450 2C9 = Cytochrome P450 2C9 (Homo sapiens, UniProt P11712)
[5] = P. falciparum Dd2 growth inhibitors, dose response, SYBR Green, cherry-picked samples (AID 1159567); type: functional, cell-based

Sequence of Cytochrome P450 2C9 (P11712 whole entry): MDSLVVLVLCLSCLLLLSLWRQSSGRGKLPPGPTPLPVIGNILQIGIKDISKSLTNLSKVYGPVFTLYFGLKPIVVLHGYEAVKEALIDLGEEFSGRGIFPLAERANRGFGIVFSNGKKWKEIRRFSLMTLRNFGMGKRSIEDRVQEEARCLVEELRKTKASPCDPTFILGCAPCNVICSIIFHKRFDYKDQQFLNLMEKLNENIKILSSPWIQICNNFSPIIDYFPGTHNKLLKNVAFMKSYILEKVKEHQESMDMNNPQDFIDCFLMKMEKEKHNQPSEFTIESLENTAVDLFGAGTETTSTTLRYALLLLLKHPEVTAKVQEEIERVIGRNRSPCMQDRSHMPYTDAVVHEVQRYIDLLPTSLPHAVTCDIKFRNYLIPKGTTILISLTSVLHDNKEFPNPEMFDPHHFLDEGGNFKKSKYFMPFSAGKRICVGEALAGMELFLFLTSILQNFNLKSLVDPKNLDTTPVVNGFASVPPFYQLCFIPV
Sequence of Cytochrome P450 2C19 (P33261 whole entry): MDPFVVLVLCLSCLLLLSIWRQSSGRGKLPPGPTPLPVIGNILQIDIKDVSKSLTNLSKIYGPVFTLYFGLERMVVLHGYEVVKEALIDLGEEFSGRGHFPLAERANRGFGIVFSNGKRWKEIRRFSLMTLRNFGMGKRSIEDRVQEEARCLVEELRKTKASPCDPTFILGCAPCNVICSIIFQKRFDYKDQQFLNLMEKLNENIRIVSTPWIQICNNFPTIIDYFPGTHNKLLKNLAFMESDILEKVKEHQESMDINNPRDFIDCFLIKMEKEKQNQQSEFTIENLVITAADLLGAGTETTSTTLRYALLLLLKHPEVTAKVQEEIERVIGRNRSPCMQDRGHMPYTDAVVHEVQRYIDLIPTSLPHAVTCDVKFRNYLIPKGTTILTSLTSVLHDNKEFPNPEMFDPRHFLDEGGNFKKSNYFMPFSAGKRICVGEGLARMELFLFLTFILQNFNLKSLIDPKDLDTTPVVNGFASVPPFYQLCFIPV

SMILES: Cc1ccccc1/C=C1\CCCc2ccccc2C1=O
EC50 [1]: 0.172 µM (active)
EC50 [2]: 0.328 µM (active)

SMILES: CCN(CC)c1nc(C)nc2c1cnn2CCc1ccccc1
EC50 [1]: 85.2 µM (active)
EC50 [2]: 92.1 µM (active)

SMILES: COc1ccc([C@H]2CC(=O)C=C(c3ccnc4ccc(Cl)cc34)C2)cc1
AC50 (INS1): 2.64 µM (active)

SMILES: O=C(CN1C(=O)NC2(CCCCCC2)C1=O)c1ccc2c(c1)OCCO2
EC50 [1]: 4.64 µM (active)
EC50 [2]: 0.676 µM (active)

SMILES: COc1nnc(-c2ccc(N3CCCCC3)c(NC(=O)C3CCCCC3)c2)c2ccccc12
AC50 (INS1): 6.09 µM (active)

SMILES: O=C(c1cccnc1)C1Cc2ccccc2C1=O (configuration not stated)
IC50 (Protein skinhead-1): > 100 µM (inactive)

SMILES: C=CCOc1ccc(C2OC34CCCCC3C(C#N)(C#N)C2(C#N)C(=N)O4)cc1 (configuration not stated)
EC50 [3]: 12.5 µM (active)
EC50 [4]: 9.41 µM (active)

SMILES: CC(C)c1cccc(C(C)C)c1OC(=O)[C@H]1OC(C(C)(C)C)=C[C@@H]1c1ccccc1
AC50 (INS1): 7.46 µM (active)

SMILES: O=C(C1=C[C@@H](c2ccc(C(F)(F)F)cc2)C[C@@H](OCCCCO)O1)N1CCN(Cc2ccccc2)CC1
AC50 (INS1): 5.94 µM (active)

SMILES: O=C(Nc1cc(-c2ccccc2)nn1C1CCCCC1)c1ccc(Cl)cc1
AC50 (INS1): 5.2 µM (active)

SMILES: CC(=O)n1c(/C=N/c2ccccc2)c(O)c2ccccc21
EC50 [3]: > 300 µM (not active)
EC50 [4]: > 300 µM (not active)

SMILES: O=C(N/N=C\c1cc([N+](=O)[O-])ccc1N1CCCC1)c1ccccn1
EC50 [3]: 149 µM (inconclusive)
EC50 [4]: 70.5 µM (inconclusive)

SMILES: CCCNC(=O)N1[C@H](C#N)[C@@H](c2ccccc2C2=CCCC2)[C@@H]1CO
AC50 [5]: 7.07 µM (active)

SMILES: COc1ccccc1-c1ccc([C@@H]2[C@@H](CO)N3CCCCN(C(=O)c4ccncc4)C[C@@H]23)cc1
AC50 [5]: 14.1 µM (active)

SMILES: O=C(C[C@@H]1C[C@H]2c3cc(NS(=O)(=O)c4ccc(F)cc4)ccc3O[C@H]2[C@H](CO)O1)N1CCc2ccccc2C1
AC50 [5]: 9.73 µM (active)

SMILES: COCC(=O)Nc1ccc2c(c1)C(=O)N(C)C[C@H](OC)[C@H](C)CN(Cc1cc(F)ccc1F)[C@H](C)CO2
AC50 [5]: 3.74 µM (active)

Continued, values first:

EC50 [3]: > 300 µM (not active)
EC50 [4]: > 300 µM (not active)
SMILES: COc1ccccc1-c1cnn2c(NCc3ccccc3)cc(C)nc12

EC50 [3]: 93.2 µM (active)
EC50 [4]: 31.3 µM (active)
SMILES: CC1(OC(=O)c2cccs2)C(=O)C=C2C=C(c3ccc(C#N)cc3)OC=C2C1=O (configuration not stated)

EC50 [3]: > 300 µM (not active)
EC50 [4]: > 300 µM (not active)
SMILES: Cc1ccc(-c2ccccc2)n1-c1ccc(C(=O)O)cc1

IC50 (Protein skinhead-1): > 100 µM (inactive)
SMILES: CCCCn1nnnc1NCc1ccc(C)s1

IC50 (Protein skinhead-1): > 100 µM (inactive)
SMILES: CCC(=O)c1ccc(OCC(O)CN2CCN(S(=O)(=O)N3CCCCC3)CC2)cc1 (configuration not stated)

IC50 (Protein skinhead-1): 18.8 µM (active)
SMILES: c1ccc(-c2noc(-c3cccc4ccccc34)n2)cc1

EC50 [3]: > 300 µM (inconclusive)
EC50 [4]: 31.3 µM (active)
SMILES: COc1cc(C2C3CN(C)CC=C3C(C#N)=C(N)C2(C#N)C#N)ccc1OC(C)C (configuration not stated)

IC50 (Protein skinhead-1): > 100 µM (inactive)
SMILES: O=C(CSc1nnc(CN2CCOCC2)n1-c1ccc(Cl)cc1)N1CCc2ccccc21

IC50 (Protein skinhead-1): 53.9 µM (inactive)
SMILES: Clc1ccc(OCCCCCN2CCOCC2)cc1

IC50 (Protein skinhead-1): 16.4 µM (active)
SMILES: CCCn1nc2cc(C(=O)NCc3ccc(OC(F)(F)F)cc3)ccc2c1OCC

IC50 (Protein skinhead-1): > 100 µM (inactive)
SMILES: COC(=O)c1ccc(Nc2cc(C)nc3ncnn23)cc1

AC50 (Cytochrome P450 2C19): 39.8 µM (inconclusive)
AC50 (Cytochrome P450 1A2): 0.01 µM (inconclusive)
AC50 (Cytochrome P450 2C9): 25.1 µM (inconclusive)
SMILES: O=C(O)CCCCCNC(=O)c1ccncc1

IC50 (Protein skinhead-1): > 100 µM (inactive)
SMILES: Cc1ccc(NC(=O)CSCc2cc(=O)n3ccsc3n2)cc1

IC50 (Protein skinhead-1): > 100 µM (inactive)
SMILES: CCN(CC(=O)Nc1ccccc1C(F)(F)F)C(=O)c1ccc(NC(=O)c2cccs2)cc1
